Experimental data as given in patent US9249129B2, “Morpholino substituted urea derivatives as mTOR inhibitors” (CELLZOME LIMITED, priority 2010, dated 2016).
Where two headings read alike, the source gives them in different places.

How the values were obtained:
Format in all cases: binding
[1] = biological target: T1, mTOR (Homo sapiens, UniProt P42345); assay: mTOR kinobeads assay (dot blot detection)
T1 construct: endogenous in cells; host or cells: Jurkat cells (ATCC TIB-152, clone E6-1), lysate
Protocol: (§1) The compounds of the present invention as described were tested in the mTOR kinobeads assay as described below. Briefly, test compounds (at various concentrations) and the affinity matrix (1:1 mixture of beads with immobilized phenylthiazole ligand 1 and beads with immobilized phenylmorpholin-chromen ligand; WO 2009/098021) were added to cell lysate aliquots and allowed to bind to the proteins in the lysate sample. After the incubation time the beads with captured proteins were separated from the lysate. Bound proteins were then eluted and the presence of mTOR, PI3K delta (PI3 Kd) and DNA-dependent protein kinase (DNA-PK) was detected and quantified using a specific antibody in a dot blot procedure and the Odyssey infrared detection system. Dose response curves for individual kinases were generated and IC50 values calculated. Kinobeads assays for PI3 kinases (WO-A 2008/015013) and for kinase selectivity profiling (WO 2009/098021) have been previously described.
(§2) The affinity matrix (beads with immobilized phenylmorpholin-chromen ligand) was washed two times with 15 ml of 1×DP buffer containing 0.2% NP40 (IGEPAL® CA-630, Sigma, #13021) and then resupended in 5.5 ml of 1×DP buffer containing 0.2% NP40 (10% beads slurry).
(§3) 5×DP buffer: 250 mM Tris-HCl pH 7.4, 25% Glycerol, 7.5 mM MgCl2, 750 mM NaCl, 5 mM Na3VO4, filter the 5×-lysis buffer through 0.22 μm filter and store in aliquots at −80° C. The 5×DP buffer is diluted to 1×DP buffer containing 1 mM DTT and 25 mM NaF.
(§4) Stock solutions of test compounds were prepared in DMSO. In a 96 well plate 30 μl solution of diluted test compounds at 5 mM in DMSO were prepared. Starting with this solution a 1:3 dilution series (9 steps) was prepared. For control experiments (no test compound) a buffer containing 2% DMSO was used. Compound CZC00018052 served as a positive control (PI-103; Calbiochem catalogue number 528100).
(§5) Jurkat cells (ATCC catalogue number TIB-152 Jurkat, clone E6-1) were grown in 1 litre Spinner flasks (Integra Biosciences, #182101) in suspension in RPMI 1640 medium (Invitrogen, #21875-034) supplemented with 10% Fetal Bovine Serum (Invitrogen) at a density between 0.15×10^6 and 1.2×10^6 cells/ml. Cells were harvested by centrifugation, washed once with 1×PBS buffer (Invitrogen, #14190-094) and cell pellets were frozen in liquid nitrogen and subsequently stored at −80° C.
(§6) Jurkat cells were homogenized in a Potter S homogenizer in lysis buffer: 50 mM Tris-HCl, 0.8% NP40, 5% glycerol, 150 mM NaCl, 1.5 mM MgCl2, 25 mM NaF, 1 mM sodium vanadate, 1 mM DTT, pH 7.5. One complete EDTA-free tablet (protease inhibitor cocktail, Roche Diagnostics, 1873580) per 25 ml buffer was added. The material was dounced 10 times using a mechanized POTTER S, transferred to 50 ml falcon tubes, incubated for 30 minutes on ice and spun down for 10 min at 20,000 g at 4° C. (10,000 rpm in Sorvall SLA600, precooled). The supernatant was transferred to an ultracentrifuge (UZ)-polycarbonate tube (Beckmann, 355654) and spun for 1 hour at 100.000 g at 4° C. (33.500 rpm in Ti50.2, precooled). The supernatant was transferred again to a fresh 50 ml falcon tube, the protein concentration was determined by a Bradford assay (BioRad) and samples containing 50 mg of protein per aliquot were prepared. The samples were immediately used for experiments or frozen in liquid nitrogen and stored frozen at −80° C.
(§7) Jurkat cell lysate (approximately 50 mg protein per plate) was thawed in a water bath at room temperature and then kept on ice. To the thawed cell lysate 1×DP 0.8% NP40 buffer containing protease inhibitors (1 tablet for 25 ml buffer; EDTA-free protease inhibitor cocktail; Roche Diagnostics 1873580) was added in order to reach a final protein concentration of 5 mg/ml total protein. The diluted cell lysate was stored on ice. […]

[2] = biological target: T2, PI3K delta (PI3Kd) (Homo sapiens, UniProt O00329); assay: kinobeads assay, PI3K delta (dot blot detection)
T2 construct: endogenous in cells; host or cells: Jurkat cells (ATCC TIB-152, clone E6-1), lysate
Protocol: as §1, §2, §3, §4, §5, §6, §7

[3] = biological target: T3, DNA-dependent protein kinase (DNA-PK) (Homo sapiens, UniProt P78527); assay: kinobeads assay, DNA-PK (dot blot detection)
T3 construct: endogenous in cells; host or cells: Jurkat cells (ATCC TIB-152, clone E6-1), lysate
Protocol: as §1, §2, §3, §4, §5, §6, §7

[4] = Table 2, Jurkat cell lysate, read-out: Inhibition values (IC50) mTor
[5] = Table 4, read-out: Inhibition values (IC50) mTOR
[6] = Table 2, Jurkat cell lysate, read-out: Inhibition values (IC50) PI3Kd
[7] = Table 4, read-out: Inhibition values (IC50) PI3Kd
[8] = Table 2, Jurkat cell lysate, read-out: Inhibition values (IC50) DNAPK
[9] = Table 4, read-out: Inhibition values (IC50) DNAPK

T2 sequence (O00329 whole entry): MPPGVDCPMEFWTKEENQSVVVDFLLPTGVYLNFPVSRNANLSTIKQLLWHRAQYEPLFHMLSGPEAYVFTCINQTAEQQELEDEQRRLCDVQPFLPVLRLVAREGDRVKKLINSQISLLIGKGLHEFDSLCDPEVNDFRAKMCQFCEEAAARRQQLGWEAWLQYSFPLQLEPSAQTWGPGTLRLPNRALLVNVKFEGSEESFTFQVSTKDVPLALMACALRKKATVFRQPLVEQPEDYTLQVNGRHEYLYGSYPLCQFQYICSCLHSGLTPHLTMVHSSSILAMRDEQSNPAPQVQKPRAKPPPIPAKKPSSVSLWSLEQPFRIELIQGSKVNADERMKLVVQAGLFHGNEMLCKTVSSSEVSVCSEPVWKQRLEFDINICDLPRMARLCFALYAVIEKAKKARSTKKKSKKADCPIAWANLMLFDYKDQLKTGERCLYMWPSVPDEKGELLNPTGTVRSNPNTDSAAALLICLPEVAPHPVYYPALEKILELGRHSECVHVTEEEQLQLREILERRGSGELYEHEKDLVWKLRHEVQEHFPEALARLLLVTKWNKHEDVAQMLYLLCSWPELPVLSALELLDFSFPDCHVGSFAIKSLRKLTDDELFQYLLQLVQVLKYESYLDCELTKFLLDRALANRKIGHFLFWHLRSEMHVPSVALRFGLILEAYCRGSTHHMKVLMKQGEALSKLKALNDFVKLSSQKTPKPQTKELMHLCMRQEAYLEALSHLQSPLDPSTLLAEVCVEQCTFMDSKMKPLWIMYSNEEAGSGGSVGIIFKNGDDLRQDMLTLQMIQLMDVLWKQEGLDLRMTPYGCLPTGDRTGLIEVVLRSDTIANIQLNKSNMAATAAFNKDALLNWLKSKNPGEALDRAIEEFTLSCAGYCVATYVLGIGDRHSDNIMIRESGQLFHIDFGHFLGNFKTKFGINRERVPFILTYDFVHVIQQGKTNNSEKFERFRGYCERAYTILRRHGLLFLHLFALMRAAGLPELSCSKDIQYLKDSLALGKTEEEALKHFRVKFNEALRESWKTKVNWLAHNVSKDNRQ
T2 sequence (P27986 whole entry partner): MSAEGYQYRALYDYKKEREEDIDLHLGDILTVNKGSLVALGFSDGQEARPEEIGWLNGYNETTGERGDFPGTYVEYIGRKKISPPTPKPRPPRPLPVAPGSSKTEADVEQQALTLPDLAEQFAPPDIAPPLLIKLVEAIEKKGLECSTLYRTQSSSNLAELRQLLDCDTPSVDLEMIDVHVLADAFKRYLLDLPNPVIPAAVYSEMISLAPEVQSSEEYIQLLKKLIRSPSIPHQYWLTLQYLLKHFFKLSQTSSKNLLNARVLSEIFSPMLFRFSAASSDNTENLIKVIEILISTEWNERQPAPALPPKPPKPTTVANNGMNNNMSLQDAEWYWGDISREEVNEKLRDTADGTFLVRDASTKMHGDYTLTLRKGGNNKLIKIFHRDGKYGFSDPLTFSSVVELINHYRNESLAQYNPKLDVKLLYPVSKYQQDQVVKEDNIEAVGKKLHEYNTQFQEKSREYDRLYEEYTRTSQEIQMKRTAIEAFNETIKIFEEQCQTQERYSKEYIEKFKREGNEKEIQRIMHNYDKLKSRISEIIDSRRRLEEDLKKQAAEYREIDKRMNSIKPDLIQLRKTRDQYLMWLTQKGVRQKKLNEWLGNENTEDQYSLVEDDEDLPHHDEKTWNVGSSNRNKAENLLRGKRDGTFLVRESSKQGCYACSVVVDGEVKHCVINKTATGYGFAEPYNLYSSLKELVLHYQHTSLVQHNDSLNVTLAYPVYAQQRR

## CCNC(=O)Nc1ccc(-c2cc(-c3ccccc3NC(C)=O)nc(N3CCOC[C@@H]3C)n2)cc1 [Example 10, (S)—N-(2-(6-(4-(3-ethylureido)phenyl)-2-(3-methylmorpholino)pyrimidin-4-yl)phenyl)acetamide]
[1]; [4]
  IC50: 1 to 10 µM
[1]; [5]
  IC50: 1 to 10 µM
[2]; [6]
  IC50: ≥ 10 µM
[2]; [7]
  IC50: ≥ 10 µM
[3]; [8]
  IC50: ≥ 10 µM
[3]; [9]
  IC50: ≥ 10 µM

## O=C(Nc1ccc(-c2cc(-c3cccnc3)nc(N3CCOCC3)n2)cc1)NC1CC1 [Example 1, 1-cyclopropyl-3-(4-(2-morpholino-6-(pyridin-3-yl)pyrimidin-4-yl)phenyl)urea]
[1]; [4]
  IC50: 1 to 10 µM
[1]; [5]
  IC50: 1 to 10 µM
[2]; [6]
  IC50: ≥ 10 µM
[2]; [7]
  IC50: ≥ 10 µM
[3]; [8]
  IC50: ≥ 10 µM
[3]; [9]
  IC50: ≥ 10 µM

## CCNC(=O)Nc1ccc(-c2cc(-c3ccccc3C(=O)O)nc(N3CCOC[C@@H]3C)n2)cc1 [Example 11, (S)-2-(6-(4-(3-ethylureido)phenyl)-2-(3-methylmorpholino)pyrimidin-4-yl)benzoic acid]
[1]; [4]
  IC50: 1 to 10 µM
[1]; [5]
  IC50: 1 to 10 µM
[2]; [6]
  IC50: ≥ 10 µM
[2]; [7]
  IC50: ≥ 10 µM
[3]; [8]
  IC50: ≥ 10 µM
[3]; [9]
  IC50: ≥ 10 µM

## CNC(=O)Nc1ccc(-c2nccc(N3CCOCC3)n2)cc1 [Example 27, 1-methyl-3-(4-(4-morpholinopyrimidin-2-yl)phenyl)urea]
[1]; [4]
  IC50: 1 to 10 µM
[1]; [5]
  IC50: 1 to 10 µM
[2]; [6]
  IC50: 1 to 10 µM
[2]; [7]
  IC50: 1 to 10 µM
[3]; [8]
  IC50: 1 to 10 µM
[3]; [9]
  IC50: 1 to 10 µM

## CCNC(=O)Nc1ccc(-c2cc(-c3ccccc3S(C)(=O)=O)nc(N3CCOCC3)n2)cc1 [Example 20, 1-ethyl-3-(4-(6-(2-(methylsulfonyl)phenyl)-2-morpholinopyrimidin-4-yl)phenyl)urea]
[1]; [4]
  IC50: 1 to 10 µM
[1]; [5]
  IC50: 1 to 10 µM
[2]; [6]
  IC50: ≥ 10 µM
[2]; [7]
  IC50: ≥ 10 µM
[3]; [8]
  IC50: ≥ 10 µM
[3]; [9]
  IC50: ≥ 10 µM

## CCCNC(=O)Nc1ccc(-c2nccc(N3CCOCC3)n2)cc1 [Example 32, 1-(4-(4-morpholinopyrimidin-2-yl)phenyl)-3-propylurea]
[1]; [4]
  IC50: 1 to 10 µM
[1]; [5]
  IC50: 1 to 10 µM
[2]; [6]
  IC50: ≥ 10 µM
[2]; [7]
  IC50: ≥ 10 µM
[3]; [8]
  IC50: 1 to 10 µM
[3]; [9]
  IC50: 1 to 10 µM

## CCNC(=O)Nc1ccc(-c2cc(-c3cc[nH]n3)nc(N3CCOC[C@@H]3C)n2)cc1 [Example 18, (S)-1-ethyl-3-(4-(2-(3-methylmorpholino)-6-(1H-pyrazol-3-yl)pyrimidin-4-yl)phenyl)urea]
[1]; [4]
  IC50: 1 to 10 µM
[1]; [5]
  IC50: 1 to 10 µM
[2]; [6]
  IC50: ≥ 10 µM
[2]; [7]
  IC50: ≥ 10 µM
[3]; [8]
  IC50: ≥ 10 µM
[3]; [9]
  IC50: ≥ 10 µM

## CCNC(=O)Nc1ccc(-c2cc(-c3ccccc3S(=O)(=O)NC)nc(N3CCOCC3)n2)cc1 [Example 19, 2-(6-(4-(3-ethylureido)phenyl)-2-morpholinopyrimidin-4-yl)-N-methylbenzenesulfonamide]
[1]; [4]
  IC50: 1 to 10 µM
[1]; [5]
  IC50: 1 to 10 µM
[2]; [6]
  IC50: ≥ 10 µM
[2]; [7]
  IC50: ≥ 10 µM
[3]; [8]
  IC50: ≥ 10 µM
[3]; [9]
  IC50: ≥ 10 µM

## CCNC(=O)Nc1ccc(-c2cc(-c3ccncc3)nc(N3CCOC[C@@H]3C)n2)cc1 [Example 13, (S)-1-ethyl-3-(4-(2-(3-methylmorpholino)-6-(pyridin-4-yl)pyrimidin-4-yl)phenyl)urea]
[1]; [4]
  IC50: 1 to 10 µM
[1]; [5]
  IC50: 1 to 10 µM
[2]; [6]
  IC50: ≥ 10 µM
[2]; [7]
  IC50: ≥ 10 µM
[3]; [8]
  IC50: ≥ 10 µM
[3]; [9]
  IC50: ≥ 10 µM

## CCNC(=O)Nc1ccc(-c2cc(-c3ccccc3NS(C)(=O)=O)nc(N3CCOC[C@@H]3C)n2)cc1 [Example 9, (S)—N-(2-(6-(4-(3-ethylureido)phenyl)-2-(3-methylmorpholino)pyrimidin-4-yl)phenyl)methanesulfonamide]
[1]; [4]
  IC50: 1 to 10 µM
[1]; [5]
  IC50: 1 to 10 µM
[2]; [6]
  IC50: ≥ 10 µM
[2]; [7]
  IC50: ≥ 10 µM
[3]; [8]
  IC50: ≥ 10 µM
[3]; [9]
  IC50: ≥ 10 µM

## NC(=O)Nc1ccc(-c2nccc(N3CCOCC3)n2)cc1 [Example 33, 1-(4-(4-morpholinopyrimidin-2-yl)phenyl)urea]
[1]; [4]
  IC50: 1 to 10 µM
[1]; [5]
  IC50: 1 to 10 µM
[2]; [6]
  IC50: 1 to 10 µM
[2]; [7]
  IC50: 1 to 10 µM
[3]; [8]
  IC50: 1 to 10 µM
[3]; [9]
  IC50: 1 to 10 µM

## CCNC(=O)Nc1ccc(-c2nccc(N3CCOCC3)n2)cc1 [Example 36, 1-ethyl-3-(4-(4-morpholinopyrimidin-2-yl)phenyl)urea]
[1]; [4]
  IC50: 1 to 10 µM
[1]; [5]
  IC50: 1 to 10 µM
[2]; [6]
  IC50: ≥ 10 µM
[2]; [7]
  IC50: ≥ 10 µM
[3]; [8]
  IC50: 1 to 10 µM
[3]; [9]
  IC50: 1 to 10 µM

## CCCNC(=O)Nc1ccc(-c2ccnc(N3CCOCC3)n2)cc1 [Example 31, 1-propyl-3-(4-(2-morpholinopyrimidin-4-yl)phenyl)urea]
[1]; [4]
  IC50: 1 to 10 µM
[1]; [5]
  IC50: 1 to 10 µM
[2]; [6]
  IC50: ≥ 10 µM
[2]; [7]
  IC50: ≥ 10 µM
[3]; [8]
  IC50: 1 to 10 µM
[3]; [9]
  IC50: 1 to 10 µM

## CCNC(=O)Nc1ccc(-c2cc(-c3ccccc3CO)nc(N3CCOC[C@@H]3C)n2)cc1 [Example 16, (S)-1-ethyl-3-(4-(6-(2-(hydroxymethyl)phenyl)-2-(3-methylmorpholino)pyrimidin-4-yl)phenyl)urea]
[1]; [4]
  IC50: 1 to 10 µM
[1]; [5]
  IC50: 1 to 10 µM
[2]; [6]
  IC50: ≥ 10 µM
[2]; [7]
  IC50: ≥ 10 µM
[3]; [8]
  IC50: ≥ 10 µM
[3]; [9]
  IC50: ≥ 10 µM

## C[C@H]1COCCN1c1cc(-c2cccc(S(C)(=O)=O)c2)nc(-c2ccc(NC(=O)NC3CC3)cc2)n1 [Example 5, (S)-1-cyclopropyl-3-(4-(4-(3-methylmorpholino)-6-(3-(methylsulfonyl)phenyl)pyrimidin-2-yl)phenyl)urea]
[1]; [4]
  IC50: 1 to 10 µM
[1]; [5]
  IC50: 1 to 10 µM
[2]; [6]
  IC50: ≥ 10 µM
[2]; [7]
  IC50: ≥ 10 µM
[3]; [8]
  IC50: ≥ 10 µM
[3]; [9]
  IC50: ≥ 10 µM

## CCNC(=O)Nc1ccc(-c2cc(-c3ccccc3C(N)=O)nc(N3CCOC[C@@H]3C)n2)cc1 [Example 12, (S)-2-(6-(4-(3-ethylureido)phenyl)-2-(3-methylmorpholino)pyrimidin-4-yl)benzamide]
[1]; [4]
  IC50: 1 to 10 µM
[1]; [5]
  IC50: 1 to 10 µM
[2]; [6]
  IC50: ≥ 10 µM
[2]; [7]
  IC50: ≥ 10 µM
[3]; [8]
  IC50: ≥ 10 µM
[3]; [9]
  IC50: ≥ 10 µM
